# “And” between values parts separate entries of the source, which are not always exact repeats. Equal values may be shown once. Read-outs that look alike come from different tables or passages of the source.
# T1: protein kinase G (PKG) (Homo sapiens, UniProt Q13976)
# T1 sequence (Q13976 1-671): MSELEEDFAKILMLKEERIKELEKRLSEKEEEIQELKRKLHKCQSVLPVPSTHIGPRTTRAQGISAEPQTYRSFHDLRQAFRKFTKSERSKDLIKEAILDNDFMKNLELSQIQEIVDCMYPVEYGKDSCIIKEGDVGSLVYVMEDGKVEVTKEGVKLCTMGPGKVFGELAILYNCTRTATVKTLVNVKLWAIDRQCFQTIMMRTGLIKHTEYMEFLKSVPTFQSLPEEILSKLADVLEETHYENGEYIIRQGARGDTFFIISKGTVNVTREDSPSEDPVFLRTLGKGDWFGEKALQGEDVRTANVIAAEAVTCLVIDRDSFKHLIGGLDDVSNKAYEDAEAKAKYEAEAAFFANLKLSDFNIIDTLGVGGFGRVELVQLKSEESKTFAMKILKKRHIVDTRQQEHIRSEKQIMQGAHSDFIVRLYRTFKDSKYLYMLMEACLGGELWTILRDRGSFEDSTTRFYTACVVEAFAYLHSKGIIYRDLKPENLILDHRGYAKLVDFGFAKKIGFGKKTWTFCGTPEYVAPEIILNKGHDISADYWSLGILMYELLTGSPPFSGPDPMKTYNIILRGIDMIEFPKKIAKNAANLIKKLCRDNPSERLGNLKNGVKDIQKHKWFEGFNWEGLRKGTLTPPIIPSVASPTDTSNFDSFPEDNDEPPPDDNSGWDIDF
# B1: TGFβ3: Transforming growth factor β3, added to hMSC together with H-8 (protein, UniProt P10600 301-412, looked up)
# Transforming growth factor …: ALDTNYCFRNLEENCCVRPLYIDFRQDLGWKWVHEPKGYYANFCSGPCPYLRSADTTHSTVLGLYNTLNPEASASPCCVPQDLEPLTILYYVGRTPKVEQLSNMVVKSCKCS
# Tests used:
# [1] = test system: osteoclast; settings: table 1 of Soerensen et al; cited from earlier work
# [2] = Necropsy after systemic H-8 injection; type: in vivo; settings: systemic injection 5, 15, 30 mg/kg/day for 4 weeks
# [3] = test system: hMSC-TERT; assay: In vitro osteoblast differentiation in OIM (ALP activity, alizarin red, qRT-PCR); type: cell-based, human
# Description: (§1) F) H-8 enhances ALP activity of hMSC, in the absence of serum.
# Adding H-8 (25 μM) to the osteogenic induction media, during 9-days in vitro hMSC osteogenic differentiation, enhanced expression of osteoblastic markers as shown by qRT-PCR analysis. **P≦0.05, ***P≦0.005 (significant difference as compared to vehicle).
# H-8 was added (25 μM) to the OIM at different time points during 12-days period.
# (§2) In order to confirm the results obtained from the initial screen, the present inventors incubated hMSC-TERT and primary human bone marrow derived MSC (hBMSC) in osteogenic induction medium (OIM) supplemented with H-8 (dose range 1-30 μM) or vehicle. […] To determine the stage of differentiation at which the effect of H-8 was most apparent, the present inventors added H-8 (25 μM) to the OIM at different time points during 12-days period.
# [4] = test system: hMSC; assay: hMSC survival in vitro, western blot of activated Caspase-3; type: cell-based, human; settings: 25 μM, during osteoblast differentiation
# Description: A) H-8 treatment of hMSC (25 μM) during osteoblast differentiation, decreased apoptosis, as shown by western blot analysis of activated Caspase-3.
# To investigate the effect of H-8 on hMSC survival in vitro, activation of Caspase-3 was evaluated, using western blot analysis.
# [5] = molecular target: Myosin Light Chain Kinase (MLCK) (Homo sapiens, UniProt Q15746); settings: cited from earlier work
# Myosin Light Chain Kinase (MLCK), sequence (Q15746 whole entry): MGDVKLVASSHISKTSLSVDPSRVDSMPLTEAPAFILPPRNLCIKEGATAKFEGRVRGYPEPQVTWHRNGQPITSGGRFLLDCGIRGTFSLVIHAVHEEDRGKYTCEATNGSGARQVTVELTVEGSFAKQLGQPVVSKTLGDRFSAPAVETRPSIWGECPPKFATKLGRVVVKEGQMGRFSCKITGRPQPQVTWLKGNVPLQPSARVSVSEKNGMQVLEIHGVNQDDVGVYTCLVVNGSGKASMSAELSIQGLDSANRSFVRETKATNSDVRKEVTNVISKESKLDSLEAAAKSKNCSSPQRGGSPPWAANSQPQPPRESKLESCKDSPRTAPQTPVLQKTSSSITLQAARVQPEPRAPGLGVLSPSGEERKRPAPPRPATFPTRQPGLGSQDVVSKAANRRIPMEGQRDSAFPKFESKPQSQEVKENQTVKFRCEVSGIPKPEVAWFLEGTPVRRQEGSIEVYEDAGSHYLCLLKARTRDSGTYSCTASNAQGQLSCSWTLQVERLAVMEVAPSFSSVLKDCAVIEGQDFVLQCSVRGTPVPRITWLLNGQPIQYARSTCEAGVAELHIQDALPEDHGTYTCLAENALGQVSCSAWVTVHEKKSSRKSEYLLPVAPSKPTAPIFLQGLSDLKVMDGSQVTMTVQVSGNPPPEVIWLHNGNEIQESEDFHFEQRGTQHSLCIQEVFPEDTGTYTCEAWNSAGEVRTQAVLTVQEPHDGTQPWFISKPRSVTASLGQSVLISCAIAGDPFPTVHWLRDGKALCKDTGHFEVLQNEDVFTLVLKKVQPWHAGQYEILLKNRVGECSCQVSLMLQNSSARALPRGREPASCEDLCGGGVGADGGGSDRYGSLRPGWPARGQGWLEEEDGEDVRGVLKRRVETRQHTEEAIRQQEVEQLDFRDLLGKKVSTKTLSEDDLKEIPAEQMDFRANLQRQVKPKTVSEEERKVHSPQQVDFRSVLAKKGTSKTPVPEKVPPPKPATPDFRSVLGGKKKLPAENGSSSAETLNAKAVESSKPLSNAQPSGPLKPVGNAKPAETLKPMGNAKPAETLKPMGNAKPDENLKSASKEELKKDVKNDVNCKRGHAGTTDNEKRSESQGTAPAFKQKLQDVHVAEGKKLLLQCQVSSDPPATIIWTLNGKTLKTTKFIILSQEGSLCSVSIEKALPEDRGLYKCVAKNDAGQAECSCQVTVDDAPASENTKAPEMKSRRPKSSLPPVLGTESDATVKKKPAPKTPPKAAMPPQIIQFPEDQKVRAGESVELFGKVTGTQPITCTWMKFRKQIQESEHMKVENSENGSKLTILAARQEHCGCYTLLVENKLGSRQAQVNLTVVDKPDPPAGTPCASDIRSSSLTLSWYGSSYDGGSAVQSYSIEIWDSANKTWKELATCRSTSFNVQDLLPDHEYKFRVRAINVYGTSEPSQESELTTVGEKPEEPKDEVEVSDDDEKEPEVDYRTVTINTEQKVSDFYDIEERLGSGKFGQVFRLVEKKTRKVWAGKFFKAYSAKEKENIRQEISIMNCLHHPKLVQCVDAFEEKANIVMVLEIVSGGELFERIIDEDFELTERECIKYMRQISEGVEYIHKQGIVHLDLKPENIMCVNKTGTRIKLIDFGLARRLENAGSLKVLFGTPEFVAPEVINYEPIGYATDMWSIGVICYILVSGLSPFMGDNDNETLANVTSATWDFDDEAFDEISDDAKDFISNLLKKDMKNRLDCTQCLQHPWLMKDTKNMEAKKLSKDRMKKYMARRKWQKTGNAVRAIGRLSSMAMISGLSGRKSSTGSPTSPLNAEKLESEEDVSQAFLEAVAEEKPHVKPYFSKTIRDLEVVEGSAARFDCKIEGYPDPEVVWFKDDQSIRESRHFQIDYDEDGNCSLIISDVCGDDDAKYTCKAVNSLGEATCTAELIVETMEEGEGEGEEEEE
# [6] = molecular target: T1, protein kinase G (PKG); settings: cited from earlier work
# [7] = test system: hMSC-TERT
# [8] = molecular target: protein kinase C(PKC); settings: cited from earlier work
# [9] = test system: hMSC-TERT implants in SCID/NOD mice; assay: In vivo heterotopic bone formation of hMSC-TERT implanted with HA/TCP
# Description: (A) Treatment of hMSC-TERT4 with H-8 (25 μM) for 7 days in vitro enhanced the in vivo heterotopic bone formation ability of the cells. (B) Systemic injection of H-8 at 30 mg/kg/day enhanced the amount of the heterotopic bone formed by hMSC-TERT4 implanted in SCID/NOD mice. (C) Human specific Vimentin staining confirmed that the newly formed heterotopic bone is of human origin. *P≦0.05 (significant difference as compared to vehicle).
# To determine the effect of H-8 treatment on the ability of hMSC to form heterotopic bone in vivo, hMSC-TERT were treated with H-8 (25 μM) or vehicle for 7 days, mixed with hydroxyapatite/tricalcium phosphate (HA/TCP) as osteoconductive carrier, and implanted subcutaneously in SCID/NOD mice. […] Human specific vimentin staining confirmed that the newly formed heterotopic bone is of human origin (FIG. 6C).
# [10] = test system: TGFβ signaling in hMSC; assay: TGFβ signaling, qRT-PCR and western blot; type: cell-based, human; settings: for effect on H-8 induced Smad2 and Akt phosphorylation: co-treatment with H-8
# Text: (C): Western blot analysis of p-Smad and p-Akt reveled that the enahcing effect of H-8 on osteoblast differentiation of hMSC is mediated through activation of non-canonical TGFβ signaling. (D): SB431542, a selective inhibitor of TGWU activity abolished the enhanced phosphorylation of Akt and smad2 after H-8 treatment.
# To investigate the mechanisms of the enhancing effects of H-8 on osteoblast differentiation of hMSC, the present inventors performed a DNA microarray analysis of hMSC-TERT under osteogenic culture conditions, in the presence or absence of the H-8 (25 μM). […] In order to identify the pathway that is primarily regulated by H-8 treatment, phosphorylation of canonical and non-canonical TGFβ signaling components was evaluated 5 minutes and 15 minutes after H-8 treatment. The inventors also evaluated the effect of TGFβ3 treatment on H-8 induced phosphorylation of Smad2 and Akt. […] This observation further confirms that the enhancing effect of H-8 on osteoblast differentiation of hMSC is mediated through regulation of TGFβ signaling.
# [11] = test system: hMSC implanted in mouse calvarial defect; assay: hMSC survival in vivo, mouse calvarial defect model; settings: 4 weeks after implantation of treated hMSC
# [12] = test system: human adipose tissue derived MSC (hAT-MSC); assay: In vitro osteoblast differentiation (ALP activity, alizarin red); type: cell-based
# [13] = test system: hMSC-TERT; assay: Adipocyte differentiation (Oil red O, qRT-PCR of adipogenic markers); type: cell-based, human; settings: 25 μM in adipogenic induction media; Oil red O day 15, qRT-PCR day 10
# Description: To determine the effect of H-8 on adipocyte differentiation of hMSC, H-8 was added (25 μM) to the adipogenic induction media (AIM) of hMSC-TERT.
# [14] = test system: primary human bone marrow derived MSC (hBMSC); assay: In vitro osteoblast differentiation in OIM (ALP activity, alizarin red); type: cell-based; settings: dose range 1-30 μM
# Description: as §1, §2
# [15] = test system: human CD14+ mononuclear cells; assay: Osteoclast formation, count of TRAP-positive multinucleated cells; type: cell-based; settings: 25 μM, day 5 of differentiation
# Text: The present inventors determined the effects of H-8 on osteoclast formation in peripheral blood-derived human CD14+ mononuclear cell cultures.
# [16] = 1 μM inhibitor in osteogenic inducing media, 6 days after induction, hMSC-TERT
# [17] = 10 μM inhibitor in osteogenic inducing media, 6 days after induction, hMSC-TERT
# [18] = 5 and 15 minutes after treatment
molecule,measurement,setting,value
"CNCCNS(=O)(=O)c1cccc2cnccc12 [H-8, N-[2-(methylamino)ethyl]-5-isoquinolinesulfonamide]",osteoclastic acid secretion,[1],no effect on osteoclastic acid secretion
same,"necropsy, toxic effects",[2],all tissues looked normal
same,stage of differentiation at which H-8 is needed (matrix mineralization),[3]; 25 μM added at different time points during 12-days period,needed during the first 9 days to exert its effects
same,gene expression of osteogenic markers (qRT-PCR),"[3]; 25 μM, 9-days in vitro hMSC osteogenic differentiation",enhanced gene expression of early and late osteogenic markers
same,ALP enhancing effect in serum free induction media,"[3]; 25 μM, serum free induction media",persists in the absence of serum
same,optimal concentration for highest enhancement of osteoblast differentiation of hMSC,[3]; based on in vitro studies,20 to 30 µM
same,dependence of ALP enhancing effect on differentiation inducers,[3]; each component of osteoblastic induction media removed,not dependent on differentiation inducers
same,ALP activity,"[3]; hMSC-TERT, OIM, dose range 1-30 μM, day 6, dose-dependent",significantly increased
same,matrix mineralization (alizarin red staining),"[3]; hMSC-TERT, OIM, dose range 1-30 μM, day 12, dose-dependent",significantly increased
same,"activated Caspase-3 (western blot), hMSC survival",[4],reduced level of activated Caspase-3
same,IC50,[5],68 µM
same,IC50,[6],0.48 µM
same,Relative ALP activity,[7]; [16],1.701
same,Relative ALP activity,[7]; [17],1.87
same,IC50,[8],15 µM
same,"heterotopic bone formation, cells pre-treated in vitro","[9]; hMSC-TERT treated 25 μM for 7 days, implanted subcutaneously, histology after 8 weeks",enhanced amount of heterotopic bone formation
same,"heterotopic bone formation, systemic treatment",[9]; intraperitoneally 30 mg/kg/day for 4 weeks after implantation of HA/TCP-hMSC-TERT,increased amount of heterotopic bone formation
same,Akt phosphorylation (western blot),[10]; [18],enhanced Akt phosphorylation at both 5 and 15 minutes
same,Smad2 phosphorylation (western blot),[10]; [18],enhanced Smad2 phosphorylation was detected only 15 minutes after H-8 treatment
same,hMSC survival in vivo (luminescent imaging),[11],increased hMSC survival
same,matrix mineralization (alizarin red staining),"[12]; 25 μM, day 10 of differentiation",enhanced matrix mineralization
same,ALP activity,[12]; day 6 of osteoblastic differentiation,dose dependent enhancing effect
same,adipocyte differentiation of hMSC,[13],does not affect adipocyte differentiation
same,ALP activity,"[14]; day 6, dose-dependent",significantly increased
same,matrix mineralization (alizarin red staining),"[14]; day 12, dose-dependent",significantly increased
same,osteoclast formation (TRAP-positive multinucleated cells),[15],did not affect osteoclast formation
NC(=O)c1ccc(-c2nc(-c3ccccn3)c(-c3ccc4c(c3)OCO4)[nH]2)cc1 [SB431542],"effect on H-8 enhanced osteoblast differentiation (ALP activity, matrix mineralization)","[3]; co-treatment with H-8, hMSC",blunted the enhancing effect of H-8 on osteoblast differentiation of hMSC
same,effect on H-8 induced Smad2 and Akt phosphorylation,[10],abolished the enhancing effect of H-8 on Smad2 and Akt phosphorylation
Cc1cc2ncc(-c3ccccc3)nc2cc1C [Tyrphostin AG 1295],Relative ALP activity,[7]; [16],1.007
same,Relative ALP activity,[7]; [17],0.3556
COc1cc2ncnc(Nc3cccc(Cl)c3)c2cc1OC [Tyrphostin AG 1478],Relative ALP activity,[7]; [16],1.097
same,Relative ALP activity,[7]; [17],Toxic
N#CC(=C(/N)Sc1ccccc1N)/C(C#N)=C(\N)Sc1ccccc1N [U-0126],Relative ALP activity,[7],0.3485 and 0.281
COC[C@H]1OC(=O)c2coc3c2[C@@]1(C)C1=C(C3=O)[C@@H]2CCC(=O)[C@@]2(C)C[C@H]1OC(C)=O [Wortmannin],Relative ALP activity,[7]; [16],0.8301
same,Relative ALP activity,[7]; [17],0.9122
C[C@@H](N)[C@H]1CC[C@H](C(=O)Nc2ccncc2)CC1 [Y-27632],Relative ALP activity,[7]; [16],0.9848
same,Relative ALP activity,[7]; [17],0.4092
Cc1ccc(NC(=O)c2cccc(N(C)C)c2)cc1NC(=O)c1ccc(O)cc1 [ZM 336372],Relative ALP activity,[7]; [16],0.869
same,Relative ALP activity,[7]; [17],0.5373
C=CC(=O)c1ccc2ccccc2c1 [ZM 449829],Relative ALP activity,[7]; [16],0.9444
same,Relative ALP activity,[7]; [17],0.8946
Cn1cnc2nc(NCCO)nc(NCc3ccccc3)c21 [iso-Olomoucine],Relative ALP activity,[7]; [16],1.084
same,Relative ALP activity,[7]; [17],0.9318
BML-265,Relative ALP activity,[7]; [16],0.3954
same,Relative ALP activity,[7]; [17],Toxic
Indirubin-3′-monoxime,Relative ALP activity,[7]; [16],0.2589
same,Relative ALP activity,[7]; [17],0.3697
B1,effect on H-8 induced Smad2 and Akt phosphorylation,[10],enhancing effect on H-8 induced Akt and Smad2 phosphorylation
